Experiments:
[1] = tested on: primary human fibroblasts derived from IPF patients (LL29 cells), α-smooth muscle actin (αSMA); assay: Inhibition of the fibrotic process: TGF-β1-treated primary human fibroblasts from IPF patients, αSMA staining; type: cell-based; conditions: Fibroblast, 96 h, 4 days; for EC50: LL29 fibroblasts from IPF patients, TGF-β1 20 ng/mL, inhibition of fibrotic process
Method in brief: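 EC50 values come from non-linear fits of the αSMA-positive percentage among SYTOX-excluded live cells, normalized to TGF-β1 plus DMSO controls, or appear as % inhibition at 10 μM when above 10 μM. Fibrosis was induced in IPF-derived LL29 fibroblasts by 20 ng/mL TGF-β1 over 4 days, with 1:2 compound dilutions from 10 μM.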

[2] = tested on: Wnt activity (Sp5-Luc reporter, SW480 colon carcinoma cells); assay: Screening assay for Wnt activity: Sp5-Luc reporter gene assay in SW480 cells; type: cell-based; conditions: Homo sapiens, overnight incubation, 10-point dose-response from 10 μM
Method in brief: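 Luminescence (BrightGlo) read after overnight 37 °C exposure of Sp5-Luc SW480 reporter cells, 4,000/well in 1% FBS, to compound dosed 1:3 over 10 points from 10 μM with 0.1% DMSO. Values normalized to DMSO-only cells, fitted with variable-slope four-parameter model; where EC50 exceeds 10 μM, % inhibition at 10 μM reported.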

EC50 [2] | SMILES | EC50 [1] | inhibition at 10 µM ([1]; LL29 fibroblasts, TGF-β1 treated, at 10 μM, read-out: percent inhibition at 10 μM (given for EC50 of >10 μM))
47 nM | Cc1ccc(-c2ccnc3[nH]c(-c4n[nH]c5ccc(-c6cncc(N)c6)nc45)nc23)s1 [Compound 395, 5-(3-(7-(5-methylthiophen-2-yl)-3H-imidazo[4,5-b]pyridin-2-yl)-1H-pyrazolo[4,3-b]pyridin-5-yl)pyridin-3-amine] | 97 nM | 
4360 nM | CN(C)CC(=O)Nc1cncc(-c2ccc3[nH]nc(-c4nc5c(-c6cccc(F)c6)ccnc5[nH]4)c3n2)c1 [Compound 969, 2-(dimethylamino)-N-(5-(3-(7-(3-fluorophenyl)-3H-imidazo[4,5-b]pyridin-2-yl)-1H-pyrazolo[4,3-b]pyridin-5-yl)pyridin-3-yl)acetamide] | 4930 nM | 
3960 nM | CN(C)Cc1cncc(-c2ccc3[nH]nc(-c4nc5c(-c6cccs6)ccnc5[nH]4)c3n2)c1 [Compound 349, N,N-dimethyl-1-(5-(3-(7-(thiophen-2-yl)-3H-imidazo[4,5-b]pyridin-2-yl)-1H-pyrazolo[4,3-b]pyridin-5-yl)pyridin-3-yl)methanamine] | 1420 nM | 
4000 nM | O=C(Nc1cncc(-c2ccc3[nH]nc(-c4nc5c(N6CCCCC6)ccnc5[nH]4)c3n2)c1)C1CC1 [Compound 188, N-(5-(3-(7-(Piperidin-1-yl)-3H-imidazo[4,5-b]pyridin-2-yl)-1H-pyrazolo [4,3-b]pyridin-5-yl)pyridin-3-yl)cyclopropanecarboxamide] | > 10000 nM | 0%
644 nM | CC(C)(C)C(=O)Nc1cncc(-c2ccc3[nH]nc(-c4nc5c(-c6ccc(Cl)s6)ccnc5[nH]4)c3n2)c1 [Compound 1043, N-(5-(3-(7-(5-chlorothiophen-2-yl)-3H-imidazo[4,5-b]pyridin-2-yl)-1H-pyrazolo [4,3-b]pyridin-5-yl)pyridin-3-yl)pivalamide] | 419 nM | 
822 nM | CCCC(=O)Nc1cncc(-c2ccc3[nH]nc(-c4nc5c(-c6ccsc6)ccnc5[nH]4)c3n2)c1 [Compound 297, N-(5-(3-(7-(thiophen-3-yl)-3H-imidazo[4,5-b]pyridin-2-yl)-1H-pyrazolo[4,3-b]pyridin-5-yl)pyridin-3-yl)butyramide] | 410 nM | 

Reference: US10329309B2, “3-(3H-imidazo[4,5-B]pyridin-2-yl)-1H-pyrazolo[4,3-B]pyridines and therapeutic uses thereof” (Samumed, LLC, priority 2015, dated 2019)
